The source of these data is patent US20030100769A1, “Cyclic amidine compounds” (priority 2000, published 2003).

The target of the test is T1, human α4β2 subtype of nicotinic acetylcholine receptors (Homo sapiens, UniProt P17787+P43681).
T1 construct: expressed in transfected cells; host or cells: Xenopus laevis oocytes injected with hnACh-R α4 and β2 cRNA (pSP64 polyA)
Nature of the test: Agonist activities at human α4β2 subtype of nicotinic acetylcholine receptors expressed in Xenopus oocytes (membrane potential holding method). The class given is cell-based. As to conditions: for EC50: held at −50 mV, calculated in comparison with the reaction with 10 μM acetylcholine (100%), read-out: Agonist activity (ED50). As for the experimental part: The agonist effect in human α4β2 subtype of nicotinic acetylcholine receptors are examined by using human nicotinic acetylcholine receptors prepared in oocytes of Xenopus laevis, which is injected with cRNA from the corresponding cloning cDNA of human α4 and β2 subunits of nicotinic acetylcholine receptors, and to measure the expression of the electric response by adding the test compounds to perfusion solution by means of membrane potential holding method.
Agonist Activities at Human α4β2 Subtype of Nicotinic Acetylcholine Receptors
(1) Preparation of cRNA of Human α4β2 Subtype of Nicotinic Acetylcholine Receptors
The obtained hnACh-R α4 cDNA and hnACh-R β2 cDNA were inserted to the cRNA expression vector (pSP64 polyA) having SP6 RNA promoter to construct hnACh-R α4/pSP64 polyA and hnACh-R β2/pSP64 polyA, respectively. After cutting from expression vector by restriction enzyme (EcoRI), transcription was performed by affecting SP6 RNA polymerase in the presence of cap analogues to obtain hnACh-R α4 cRNA and hnACh-R β2 cRNA, respectively.
(2) Expression of Human α4β2 Subtype Nicotinic Acetylcholine Receptors in Xenopus Oocytes
Oocytes were purchased from Kitanihonseibutsukyohzai Co., Ltd., which were already enucleated from Xenopus laevis, and used in this experiment.
The oocytes were treated with collagenase (Sigma type I; 1 mg/ml) in calcium-free modified Birth's solution (88 mM of NaCl, 1 mM of KCl, 2.4 mM of NaHCO3, 0.82 mM of MgSO4, 15 mM of HEPES, pH 7.6) under gently stirring at room temperature for 90 minutes, and washed out the enzyme from the tissue. Then, oocytes were separated from ovarian follicle by tweezers, and isolated oocytes were placed in antibiotics containing modified Birth's solution (88 mM of NaCl, 1 mM of KCl, 2.4 mM of NaHCO3, 0.82 mM of MgSO4, 15 mM of HEPES, pH 7.6, and 0.1 v/v % of mixture solution containing of penicillin and streptomycin for incubation; Sigma Co.). […] In oocytes, heterogeneous quintuple [(α4)2(β2)3] was composed by translation of injected cRNAs, and ion channel receptors were constructed on cell membrane.
(3) Agonist Activities at Human α4β2 Subtype of Nicotinic Acetylcholine Receptors
The recordings of responses at human α4β2 subtype of nicotinic acetylcholine receptors by means of membrane potential holding method were performed as follow. […] Test compounds were added to the perfusion solution, and recorded the peak strength of induced inward current. In order to normalize the responses of test compounds, the responses with acetylcholine (Ach) were recorded before and after application of the test compounds. Generally in the oocytes just after isolated, the response of intrinsic muscarinic acetylcholine receptors, which is inward current caused by activation of calcium dependence chloride ion channels with increase of the intracellular calcium concentration by stimulation of receptors, is observed. […] Therefore, the responses observed in oocytes with injection of hnACh-R α4 cRNA and hnACh-R β2 cRNA, i.e., the inward current induced by the intracellular influx of sodium ion according to the stimulation of receptors, would be the freshly observed responses of human α4β2 subtype nicotinic acetylcholine receptors.

T1 sequence (P43681 29-627 limits assumed): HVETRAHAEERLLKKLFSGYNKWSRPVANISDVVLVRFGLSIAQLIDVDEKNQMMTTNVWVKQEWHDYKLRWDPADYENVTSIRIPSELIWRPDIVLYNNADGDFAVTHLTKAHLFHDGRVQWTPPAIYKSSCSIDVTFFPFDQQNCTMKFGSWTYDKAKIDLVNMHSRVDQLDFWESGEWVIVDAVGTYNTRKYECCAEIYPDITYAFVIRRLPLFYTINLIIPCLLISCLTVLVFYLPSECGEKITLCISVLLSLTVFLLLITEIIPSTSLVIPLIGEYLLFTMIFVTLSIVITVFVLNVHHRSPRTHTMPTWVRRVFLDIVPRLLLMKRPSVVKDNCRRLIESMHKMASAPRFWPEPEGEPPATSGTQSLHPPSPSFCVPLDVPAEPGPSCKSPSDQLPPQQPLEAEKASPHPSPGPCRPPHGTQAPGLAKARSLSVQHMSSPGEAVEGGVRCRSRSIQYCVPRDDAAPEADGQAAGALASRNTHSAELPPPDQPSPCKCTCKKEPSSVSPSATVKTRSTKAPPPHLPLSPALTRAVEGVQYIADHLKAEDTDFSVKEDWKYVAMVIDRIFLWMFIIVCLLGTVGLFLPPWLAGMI
T1 sequence (P17787 26-502): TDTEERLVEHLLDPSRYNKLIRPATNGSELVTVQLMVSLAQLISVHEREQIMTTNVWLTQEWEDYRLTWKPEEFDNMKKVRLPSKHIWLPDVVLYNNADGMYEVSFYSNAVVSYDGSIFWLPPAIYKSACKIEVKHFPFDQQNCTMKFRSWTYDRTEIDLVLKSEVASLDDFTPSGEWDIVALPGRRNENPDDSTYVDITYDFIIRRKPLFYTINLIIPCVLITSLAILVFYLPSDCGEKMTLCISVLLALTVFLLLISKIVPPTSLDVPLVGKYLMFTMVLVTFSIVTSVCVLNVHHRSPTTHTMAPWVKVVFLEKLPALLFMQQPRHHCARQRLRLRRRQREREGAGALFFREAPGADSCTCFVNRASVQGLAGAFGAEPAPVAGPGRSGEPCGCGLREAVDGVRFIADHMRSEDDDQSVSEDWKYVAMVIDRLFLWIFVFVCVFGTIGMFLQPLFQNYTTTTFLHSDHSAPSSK

`Clc1ccc(C2=NCCCN2)cn1` [Compound 2, 2-(6-chloro-3-pyridyl)-1,4,5,6-tetrahydropyrimidine]: the EC50 was 3.4 µM.

As to `CN1CCN=C1c1ccc(Cl)nc1` [Compound 3, 2-(6-chloro-3-pyridyl)-1-methyl-2-imidazoline], the EC50 was 43.8 µM.

For `Clc1ncc(C2=NCCCN2)s1` [Compound 22, 2-(2-chloro-5-thiazolyl)-1,4,5,6-tetrahydropyrimidine], under “100 μM test compound, relative to 10 μM acetylcholine (100%)”, the “Agonist activity: control % by response at 100 μM of the test compound” value is “(13.2%)”.
